These results are taken from patent US7589206B2, “Pyrrolopyridine derivatives” (Glaxo Group Limited, priority 2004, dated 2009).

The structures appear in SMILES notation. “Also recorded” adds a separate entry of the source. Counter-ions that a name gives are not always drawn. Like-named read-outs stand apart in the source and are kept apart here.

Type in all cases: cell-based
Test [1] concerns the target T1, human cannabinoid CB2 receptor (Homo sapiens, UniProt P34972).
T1 construct: expressed in transfected cells; host or cells: Saccharomyces cerevisiae strain MMY23 (Gpa1/Galphai3 chimeric G-protein alpha subunit)
In words: Cannabinoid CB2 receptor agonist activity in yeast cells expressing the receptor (FDGlu fluorescence). To be noted: for CB2 activity at the cloned human cannabinoid CB2 receptor (in words): b47 says only 'the assay used'. Here is the method:
The cannabinoid CB2 receptor agonist activity of compounds of formula (I) was determined in accordance with the following experimental method.
(§1) Yeast (Saccharomyces cerevisiae) cells expressing the human cannabinoid CB2 receptor were generated by integration of an expression cassette into the ura3 chromosomal locus of yeast strain MMY23. This cassette consisted of DNA sequence encoding the human CB2 receptor flanked by the yeast GPD promoter to the 5′ end of CB2 and a yeast transcriptional terminator sequence to the 3′ end of CB2. MMY23 expresses a yeast/mammalian chimeric G-protein alpha subunit in which the C-terminal 5 amino acids of Gpa1 are replaced with the C-terminal 5 amino acids of human Gαi3 (as described in Brown et al. (2000), Yeast 16:11-22). Cells were grown at 30° C. in liquid Synthetic Complete (SC) yeast media (Guthrie and Fink (1991), Methods in Enzymology, Vol. 194) lacking uracil, tryptophan, adenine and leucine to late logarithmic phase (approximately 6 OD600/m).
Agonists were prepared as 10 mM solutions in DMSO. EC50 values (the concentration required to produce 50% maximal response) were estimated using dilutions of between 3- and 5-fold (BiomekFX, Beckman) into DMSO. Agonist solutions in DMSO (1% final assay volume) were transferred into black microtitre plates from NUNC (96- or 384-well). Cells were suspended at a density of 0.2 OD600/ml in SC media lacking histidine, uracil, tryptophan, adenine and leucine and supplemented with 10 mM 3-aminotriazole, 0.1M sodium phosphate pH 7.0, and 20μM fluorescein di-β-D-glucopyranoside(FDGlu). This mixture (50 ul per well) was added to agonist in the assay plates (Multidrop 384, Labsystems). After incubation at 30° C. for 24 hours, fluorescence resulting from degradation of FDGlu to fluorescein due to exoglucanase, an endogenous yeast enzyme produced during agonist-stimulated cell growth, was determined using a fluorescence microtitre plate reader (Tecan Spectrofluor or LJL Analyst excitation wavelength: 485 nm; emission wavelength: 535 nm). Fluorescence was plotted against compound concentration and iteratively curve fitted using a four parameter fit to generate a concentration effect value. Efficacy (Emax) was calculated from the equation Emax=Max[compound X]−Min[compound X]/Max[HU210]−Min[HU210]×100%
(§2) where Max[compound X] and Min[compound X] are the fitted maximum and minimum respectively from the concentration effect curve for compound X, and Max[HU210] and Min[HU210] are the fitted maximum and minimum respectively from the concentration effect curve for (6aR,10aR)-3-(1,1′-Dimethylheptyl)-6a,7,10,10a-tetrahydro-1-hydroxy-6,6-dimethyl-6H-dibenzo[b,d]pyran-9-methanol (HU210; available from Tocris). Equieffective molar ratio (EMR) values were calculated from the equation EMR=EC50 [compound X]/EC50 [HU210]
(§3) Where EC50 [compound X] is the EC50 of compound X and EC50 [HU210] is the EC50 of HU210.

The target in test [2] is T2, human cannabinoid CB1 receptor (Homo sapiens, UniProt P21554).
T2 construct: expressed in transfected cells; host or cells: Saccharomyces cerevisiae strain MMY23 (Gpa1/Galphai3 chimeric G-protein alpha subunit)
T2 sequence (P21554 whole entry): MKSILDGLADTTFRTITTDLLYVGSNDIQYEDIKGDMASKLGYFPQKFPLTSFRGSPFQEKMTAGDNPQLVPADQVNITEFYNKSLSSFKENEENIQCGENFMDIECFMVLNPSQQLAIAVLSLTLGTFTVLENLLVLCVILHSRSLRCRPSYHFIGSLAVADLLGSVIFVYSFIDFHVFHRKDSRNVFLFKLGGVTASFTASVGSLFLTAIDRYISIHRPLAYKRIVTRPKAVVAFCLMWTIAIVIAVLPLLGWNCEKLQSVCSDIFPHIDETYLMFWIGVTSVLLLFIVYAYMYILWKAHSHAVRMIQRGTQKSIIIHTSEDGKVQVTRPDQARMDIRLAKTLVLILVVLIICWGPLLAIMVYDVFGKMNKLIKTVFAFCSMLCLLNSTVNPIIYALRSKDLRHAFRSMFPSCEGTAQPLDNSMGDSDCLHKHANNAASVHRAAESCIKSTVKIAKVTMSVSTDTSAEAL
The test is described as follows: Cannabinoid CB1 receptor agonist activity in yeast cells expressing the receptor (FDGlu fluorescence). The settings on record: yeast assay, individual values of the exceptions; for EC50: read-out: EC50 at the cloned human cannabinoid CB1 receptor; for Emax: relative to HU210, read-out: efficacy (Emax) at the cloned human cannabinoid CB1 receptor. Here is the method:
The cannabinoid CB1 receptor agonist activity of compounds of formula (I) was determined in accordance with the following experimental method.
as §1, with “CB1” for “CB2”, “CB1.” for “CB2.”, “OD600/ml).” for “OD600/m).”
Agonists were prepared as 10 mM stocks in DMSO. EC50 values (the concentration required to produce 50% maximal response) were estimated using dilutions of between 3- and 5-fold (BiomekFX, Beckman) into DMSO. Agonist solutions in DMSO (1% final assay volume) were transferred into black, clear bottom, microtitre plates from NUNC (96- or 384-well). Cells were suspended at a density of 0.2 OD600/ml in SC media lacking histidine, uracil, tryptophan, adenine and leucine and supplemented with 10 mM 3-aminotriazole, 0.1M sodium phosphate pH 7.0, and 20 μM fluorescein di-β-D-glucopyranoside (FDGlu). This mixture (50 ul per well for 384-well plates, 200 ul per well for 96-well plates) was added to agonist in the assay plates (Multidrop 384, Labsystems). After incubation at 30° C. for 24 hours, fluorescence resulting from degradation of FDGlu to fluorescein due to exoglucanase, an endogenous yeast enzyme produced during agonist-stimulated cell growth, was determined using a Spectrofluor microtitre plate reader (Tecan; excitation wavelength: 485 nm; emission wavelength: 535 nm). Fluorescence was plotted against compound concentration and iteratively curve fitted using a four parameter fit to generate a concentration effect value. Efficacy (Emax) was calculated from the equation Emax=Max[compound X]−Min[compound X]/Max[HU210]−Min[HU210]×100%
as §2, §3

Test [3] concerns the target T3, human recombinant CB2 receptors (Homo sapiens, UniProt P34972).
T3 construct: expressed in transfected cells; host or cells: CHO-K1 CB2 CRE-LUC cells
The test is described as follows: CB2 agonist effects in a reporter gene assay (CHO-K1 CB2 CRE-LUC cells, inhibition of forskolin response). The settings on record: 'active except' = excluded from the actives, i.e. not active. Here is the method:
CB2 agonist effects were determined using a reporter gene assay. These studies were performed using a CHO-K1 cell line expressing human recombinant CB2 receptors (CHO-K1 CB2 CRE-LUC cells). These cells additionally express a “CRE-LUC” reporter gene construct comprising the gene for luciferase under the control of multiple cAMP response element binding protein promoters. In these cells, increases in intracellular cAMP levels leads to transcription of the luciferase gene and the subsequent production of luciferase. The expression of luciferase is measured by addition to the cells of a proprietary mixture containing luciferin, the substrate for luciferase (Luclite, Perkin Elmer, Cat No 6016919). The resultant reaction leads to the generation of light which is measured in a TopCount scintillation counter. […]
CHO-K1 CB2 CRE-LUC cells were grown in DMEM/F12 plus glutamax I medium (Gibco Cat. No. 31331-028), supplemented with 9% FBS (Gibco, Cat. No. 16000-040) and 0.5 mg·ml^−1 G418 (Gibco, Cat. No. 10131-027) and 0.5 mg·ml^−1 Hygromycin (Invitrogen, Cat. No. 10687-010). […] Finally, luminescence was measured using a Packard TopCount scintillation counter. Data Analysis For each compound maximal inhibition of the forskolin response and the EC50 for this effect was determined. […]

T1 sequence (P34972 whole entry): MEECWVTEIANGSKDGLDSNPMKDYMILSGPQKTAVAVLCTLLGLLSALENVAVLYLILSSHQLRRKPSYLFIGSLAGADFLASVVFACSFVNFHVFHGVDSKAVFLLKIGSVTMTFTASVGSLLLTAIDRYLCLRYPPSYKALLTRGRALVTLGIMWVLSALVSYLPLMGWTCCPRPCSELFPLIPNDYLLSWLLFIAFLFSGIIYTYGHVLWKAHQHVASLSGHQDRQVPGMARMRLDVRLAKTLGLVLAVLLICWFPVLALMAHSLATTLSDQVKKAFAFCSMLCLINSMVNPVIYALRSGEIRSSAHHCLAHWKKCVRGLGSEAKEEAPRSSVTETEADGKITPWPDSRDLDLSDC
T3 sequence (P34972 whole entry): as above

Broadly, the EC50 is the concentration that produces a half-maximal response. As to `Cc1ccc(Nc2ncc(C(=O)N3CCOCC3)c3c2ccn3C)c(C)c1` [Example 184, N-(2,4-Dimethylphenyl)-1-methyl-7-(4-morpholinylcarbonyl)-1H-pyrrolo[3,2-c]pyridin-4-amine hydrochloride], the EC50 in test [1] lay within 300 to 1000 nM.

One may read the Emax as the greatest response seen or fitted, relative to the assay's reference. Take `Cn1ccc2c(Nc3ccc(C#N)c(Cl)c3)ncc(C(=O)N3CCOCC3)c21` [Example 130, 2-Chloro-4-{[1-methyl-7-(4-morpholinylcarbonyl)-1H-pyrrolo[3,2-c]pyridin-4-yl]amino}benzonitrile hydrochloride]: in test [2], the half-maximal effective concentration (EC50) was 897 nM and the Emax worked out at 30%.

Regarding `Cn1ccc2c(Nc3cc(Cl)cc(Cl)c3)ncc(C(=O)N3CCOCC3)c21` [Example 124, N-(3,5-Dichlorophenyl)-1-methyl-7-(4-morpholinylcarbonyl)-1H-pyrrolo[3,2-c]pyridin-4-amine hydrochloride], in test [2], the 50% effective concentration (EC50) is 508 nM and the Emax came out at 75%.

As to `Cc1c[nH]c2c(N3CCOCC3)ncc(C(=O)NC3CCOCC3)c12.Cl` [Example 22, 3-methyl-7-morpholin-4-yl-1H-pyrrolo[2,3-c]pyridine-4-carboxylic acid (tetrahydro-pyran-4-yl)-amide], the “CB2 agonist activity in reporter gene assay (in words)” value in test [3] is reported as “active except”. The “CB2 activity at the cloned human cannabinoid CB2 receptor (in words)” value in test [1] (yeast assay) was “inactive; also recorded: did not appear to have CB2 activity”.

Take `COc1ccccc1Nc1ncc(C(=O)N2CCOCC2)c2c(C)c[nH]c12` [Example 72, 1-[7-(2-Methoxy-phenylamino)-3-methyl-1H-pyrrolo[2,3-c]pyridin-4-yl]-1-morpholin-4-yl-methanone hydrochloride salt]: the concentration giving a half-maximal response (EC50) in test [1] fell in the range of 300 to 1000 nM.

Regarding `Cn1ccc2c(Nc3cccc(Cl)c3)ncc(C(=O)N3CCSCC3)c21` [Example 237, N-(3-Chlorophenyl)-1-methyl-7-(4-thiomorpholinylcarbonyl)-1H-pyrrolo[3,2-c]pyridin-4-amine], in test [2], the EC50 turned out to be 738 nM and the maximal response (Emax) came out at 92%.

`CN(c1cccc(Cl)c1)c1ncc(C(=O)NCC2CCC2)c2c1ccn2C` [Example 67, 4-[(3-Chloro-phenyl)-methyl-amino]-1-methyl-1H-pyrrolo[3,2-c]pyridine-7-carboxylic acid cyclobutylmethyl amide hydrochloride] registered an EC50 in test [1] of 300 to 1000 nM.

`Cn1ccc2c(Nc3ccc(C#N)c(Br)c3)ncc(C(=O)N3CCOCC3)c21` [Example 162, 2-Bromo-4-{[1-methyl-7-(4-morpholinylcarbonyl)-1H-pyrrolo[3,2-c]pyridin-4-yl]amino}benzonitrile hydrochloride]: in test [2], the EC50 was 801 nM and the Emax came out at 33%.

On to `Cc1c[nH]c2c(N3CCOCC3)ncc(C(=O)NCC3CCOCC3)c12.Cl` [Example 23, 3-methyl-7-morpholin-4-yl-1H-pyrrolo[2,3-c]pyridine-4-carboxylic acid (tetrahydro-pyran-4-ylmethyl)-amide], for which, in test [3], the “CB2 agonist activity in reporter gene assay (in words)” value is reported as “active except”. Besides, in test [1] (yeast assay), the “CB2 activity at the cloned human cannabinoid CB2 receptor (in words)” value was “inactive; also recorded: did not appear to have CB2 activity”.

With `Cc1cc(F)ccc1Nc1ncc(C(=O)N2CCOCC2)c2c1ccn2C` [Example 183, N-(4-Fluoro-2-methylphenyl)-1-methyl-7-(4-morpholinylcarbonyl)-1H-pyrrolo[3,2-c]pyridin-4-amine hydrochloride], the EC50 in test [1] (yeast assay, read-out: EC50 at the cloned human cannabinoid CB2 receptor) is 300 to 1000 nM.
